Columns and labels:
[1] = target: T1, MYC:MAX heterodimer (MYCbHLHZip, labelled MAXbHLHZip) (Homo sapiens, UniProt P01106); test: Assay 1A MYC:MAX heterodimer MST assay; type: binding; conditions: thermophoresis shift of 1 μM labelled MAXbHLHZip with 1 μM MYCbHLHZip
T1 construct: MYC:MAX heterodimer formation assay based on recombinant proteins
Description: FIG. 1: A) Microscale thermophoresis (MST) of fluorescently labeled MAX in a MYC:MAX heterodimer formation assay based on recombinant proteins. MST of labeled MAXbHLHZip after titration of Example 1 pre-incubated with 1 μM MYCbHLHZip, or with 1 μM MAXbHLHZip. Fluorescence intensity of labeled MAXbHLHZip relative DMSO was plotted against Example 1 concentration. B) Surface plasmon resonance (SPR) of MYC:MAX heterodimer formation assay. MAXbHLHZip was immobilized by an amino coupling procedure to a CM5 sensor chip. MYCbHLHZip pre-incubated with or without compound (as indicated) was injected over MAX for 180 seconds, allowed to dissociate for 240 seconds and regenerated. […] C) MYC binding response units (RU) plotted against Example 1 concentration from which an IC50 of Example 1 inhibition of MYC:MAX heterodimer formation is determined, summary of four experiments. […]
(§1) MST measures the movement of fluorescent labelled molecules in a microscopic temperature gradient. Changes in charge, size or of the hydration shell of the fluorescent molecule affects its migration in the temperature gradient, which can be detected by the fluorescence of the molecule (See Seidel et al., Microscale thermophoresis quantifies biomolecular interactions under previously challenging conditions, METHODS (2013)). […] Capillaries were scanned to measure initial fluorescence of compound. […]

[2] = tested on: human MYCN-amplified SK-N-DZ neuroblastoma xenograft tumors; test: In vivo mouse xenograft tumor model; conditions: 20 mg/kg i.p. daily, 1-2 weeks
Description: SK-N-DZ MYCN-amplified neuroblastoma xenograft tumors reaching a volume of 100-200 mm^3 were treated with Example 1 (20 mg/kg body weight) or vehicle injected i.p. daily for 1-2 weeks. A) Apoptosis was determined by TUNEL staining of tumor tissues from mice treated with Example 1 or vehicle, counterstained with DAPI. Quantification of TUNEL staining was normalized to whole tumor areas as determined by DAPI from three Example 1- and three vehicle-treated mice. Student's t-test of Example 1 vs. vehicle; p=0.0083. B) Cell proliferation determined by Ki67 of tumor tissues from mice treated with Example 1 or vehicle, respectively, and counterstained with DAPI. Quantification of Ki67 negative areas normalized to whole tumor areas by DAPI from three Example 1- and three vehicle-treated mice. Student's t-test of Example 1 vs. vehicle; p=0.0380. C) Microvascular density visualized by CD31 staining in the red. C) Quantification of CD31 staining normalized to whole tumor areas from three Example 1- and three vehicle-treated mice. Student's t-test of Example 1 vs. vehicle; p=0.014. D) Detection of MYCN:MAX protein interaction by isPLA performed on tumor tissue from mice treated with Example 1 or vehicle using antibodies against MYCN and MAX. Quantification of MYCN:MAX isPLA signals in tumor tissue from Example 1- and vehicle-treated mice, presented as average number of dots from four randomly chosen microscopic fields from Example 1 treated mice normalized to corresponding values from vehicle-treated mice (F=28.102, P=0.008). E) Apoptosis determined from TUNEL stained tumor section derived from a MDA-MB231 xenograft mouse treated with Example 2 for 2 weeks. Quantification of apoptotic cells per counted field.
To validate the efficacy of Example 1 in tumor tissue in vivo, we utilized a mouse xenograft tumor model based on human MYCN-amplified SK-N-DZ neuroblastoma cells. Tumor cells (5×10^6) were injected into the flank of athymic nude mice and allowed to form tumors after which Example 1 or vehicle were administered by daily intraperitoneal injection at a dose of 20 mg/kg body weight for 1-2 weeks.

[3] = tested on: Tgr and H0Myc3 Rat1 fibroblast cells; test: Assay 5B Tgr cell growth (WST-1), MYC expressing; type: cell-based, rat; conditions: 48 hours
Description: (§2) FIG. 6: A-B) Neuroblastoma cell lines with (SK-N-DZ, Kelly and IMR-32) or without (SK-N-F1, SK-N-RA and SK-N-AS) MYCN-amplification were exposed to different concentrations of Example 1, Example 2 and control compound, respectively, for 48 hours. Cell growth and viability was estimated by measuring metabolic activity. C) Growth of TGR-1 (wt), HO15.19 (MYC knockout) and HOmyc3 (MYC reconstituted HO15.19) Rat1 fibroblasts, as measured by the WST-1 assay after treatment with Example 1. Data are shown as mean±standard deviation of 3-5 biological experiments, each with 3 technical repeats.
(§3) Assay 5B: Tgr Cell Growth
(§4) Tgr cells were treated at 37° C. and 5% CO2 at 48 hours with Example and Example 2. H015.19 is a MYC null rat cell line derived from Tgr1 (parental cells), while H0Myc3 cells were generated from the MYC null cells by reconstitution of a MYC gene(Mateyak, M. K., Obaya, A. J., Adachi, S. & Sedivy, J. M. Phenotypes of c-Myc-deficient rat fibroblasts isolated by targeted homologous recombination. Cell Growth Differ 8, 1039-1048 (1997)).

MAX:MAX (MAXbHLHZip) = target: T2, MAX:MAX (MAXbHLHZip) (Homo sapiens, UniProt P61244); test: Assay 1A MST, labelled MAX pre-mixed with MAX instead of MYC; type: binding; conditions: 1 μM MAX instead of MYC
T2 construct: Recombinant MYC bHLHZip and MAX bHLHZip proteins were titrated
T2 sequence (P61244 22-102): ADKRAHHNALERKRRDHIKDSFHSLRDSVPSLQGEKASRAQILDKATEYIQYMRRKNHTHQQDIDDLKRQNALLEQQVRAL
Description: FIG. 1: A) Microscale thermophoresis (MST) of fluorescently labeled MAX in a MYC:MAX heterodimer formation assay based on recombinant proteins. MST of labeled MAXbHLHZip after titration of Example 1 pre-incubated with 1 μM MYCbHLHZip, or with 1 μM MAXbHLHZip. Fluorescence intensity of labeled MAXbHLHZip relative DMSO was plotted against Example 1 concentration. B) Surface plasmon resonance (SPR) of MYC:MAX heterodimer formation assay. MAXbHLHZip was immobilized by an amino coupling procedure to a CM5 sensor chip. MYCbHLHZip pre-incubated with or without compound (as indicated) was injected over MAX for 180 seconds, allowed to dissociate for 240 seconds and regenerated. […] C) MYC binding response units (RU) plotted against Example 1 concentration from which an IC50 of Example 1 inhibition of MYC:MAX heterodimer formation is determined, summary of four experiments.
as §1

[4] = tested on: MYC null (H015.19) Rat1 fibroblast cells; test: Assay 5B Tgr cell growth (WST-1), MYC null; type: cell-based, rat; conditions: 48 hours
Description: as §2, §3, §4

[5] = Rattus norvegicus, Fibroblast, first run

T1 sequence (P01106 368-449 limits assumed, one chain of several): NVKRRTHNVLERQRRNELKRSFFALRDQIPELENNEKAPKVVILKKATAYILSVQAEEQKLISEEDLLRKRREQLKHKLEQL

## CCOc1ccc2nc3cc(/N=N/c4ccc(N)nc4N)ccc3c(N)c2c1 [Example 1, 3-((9-amino-7-ethoxyacridin-3-yl)diazenyl)pyridine-2,6-diamine sulphate hydrate]
[1]
  Kd: 4.3 µM
[2]
  CD31 Decrease in microvascular density: 44 % of vehicle
  Ki67 Increase in Ki67-negative tumor area relative to vehicle: 550%
  MYCN:MAX interactions in tumors (isPLA) vs vehicle: significant reduction
  MYCN:MAX isPLA signal relative to vehicle: 66 % of vehicle
  TUNEL Increase in apoptotic tumor area relative to vehicle: 1420%
  apoptotic tumor areas (TUNEL) vs vehicle: dramatic increase
  microvascular density (CD31) vs vehicle: significantly reduced
  non-proliferative areas (Ki67) vs vehicle: significant increase
[3]
  growth of wt and reconstituted cells: strongly inhibited
[3]; [5]
  GI50: 4 µM
MAX:MAX (MAXbHLHZip)
  effect on labelled MAX thermophoresis when pre-mixed with MAX: minor effects
[4]
  growth of the MYC null cells: did not significantly affect
[4]; [5]
  GI50: > 10 µM
